Measurements published in publication PMC2929646 (Nutrition research (New York, N.Y.), 2010).
Read-outs that look alike come from different tables or passages of the source. Values belong to the compound of their own block, whether it stands above or below them.

Key:
Caco-2 monolayers [1] = details: cited from earlier work
Caco-2 monolayers [2] = details: cited from earlier work; remark: listed apart in the source
[3] = system: human histolytic lymphoma U937 cells; details: cited from earlier work
[4] = system: fibrosarcoma HT1080 cells; details: cited from earlier work
rat squalene epoxidase = details: relative to EGCG; cited from earlier work
lipase = details: cited from earlier work
U937 cells = details: cited from earlier work
Caco-2 cells [5] = details: cited from earlier work
Caco-2 cells [6] = details: media containing 50 µM ECG; cited from earlier work
[7] = cited from earlier work
[8] = cited from earlier work; remark: listed apart in the source
[9] = Stability in cell-free experimental media; format: physicochemical; details: cell-free media (pH 5 PBS), 37°C, media 5 (EGCG), media 2 (dimers), mean ± SEM, n=4
[10] = system: Caco-2 human intestinal cells; experiment: Parallel accumulation and retention experiment in Caco-2 monolayers; format: in vitro ADME; details: after 3 h accumulation, 1 h in catechin/dimer-free PBS; mean ± SEM, n=4
[11] = system: Caco-2 human intestinal cells (TC7 clone); experiment: Accumulation of catechin monomers and auto-oxidation dimers by Caco-2 monolayers

Compound: Oc1cc(O)c2c(c1)O[C@H](c1ccc(O)c(O)c1)[C@@H](O)C2 [(+)-C, (+)-catechin]
membrane adsorption (Caco-2 monolayers [1]): 0.15–0.2 % transmembrane resistance, Ω cm^2 | apparent apical → basolateral permeability (Caco-2 monolayers [2]): 0.8 ×10⁻⁶ cm/s

Compound: O=C(O[C@@H]1Cc2c(O)cc(O)cc2O[C@@H]1c1cc(O)c(O)c(O)c1-c1c([C@H]2Oc3cc(O)cc(O)c3C[C@H]2OC(=O)c2cc(O)c(O)c(O)c2)cc(O)c(O)c1O)c1cc(O)c(O)c(O)c1 [THSN D]
induction of apoptosis compared with EGCG [3]: more effective than EGCG | inhibition of invasive activity compared with EC, EGC and EGCG [4]: better inhibitor of the invasive activity of fibrosarcoma HT1080 cells than EC and EGC, but was less effective than EGCG

Compound: Oc1cc(O)c2c(c1)O[C@H](c1ccc(O)c(O)c1)[C@@H](O)[C@@H]2c1c(O)cc(O)c2c1O[C@H](c1ccc(O)c(O)c1)[C@@H](O)C2 [procyanidin dimer B3, (+)-C-(4α→8)-(+)-C]
apparent apical → basolateral permeability (Caco-2 monolayers [2]): 2 ×10⁻⁶ cm/s

Compound: O=C(O[C@@H]1Cc2c(O)cc(O)cc2O[C@@H]1c1cc(O)c(O)c(O)c1-c1c([C@H]2Oc3cc(O)cc(O)c3C[C@H]2OC(=O)c2cc(O)c(O)c(O)c2)cc(O)c(O)c1O)c1cc(O)c(O)c(O)c1 [THSN A]
induction of apoptosis [3]: induced apoptosis | IC50 value, fold lower than EGCG (rat squalene epoxidase): 5 × | inhibition of lipase compared with EGCG (lipase): more effective inhibitor of lipase than EGCG | inhibition of growth compared with EGCG (U937 cells): more effective at inhibiting the growth of U937 cells than EGCG

Compound: Oc1cc(O)c2c(c1)O[C@H](c1cc(O)c(O)c(O)c1)[C@H](O)C2 [EGC, (−)-epigallocatechin]
3 h accumulation (Caco-2 cells [5]): 0.1–0.5 nmol/mg protein

Compound: O=C(O[C@@H]1Cc2c(O)cc(O)cc2O[C@@H]1c1ccc(O)c(O)c1)c1cc(O)c(O)c(O)c1 [ECG, (−)-epicatechin gallate]
1 h accumulation (Caco-2 cells [6]): roughly 3 nmol/mg protein

Stability over 3 h (percent of initial concentration) [9]: 100 ± 0.36% | 1 h Retention, Absolute [10]: 7.08 ± 2.2 pmol/well
Compound: theasinensins (THSNs) A/D [THSNs A/D]
O2^•− scavenging activity compared with EGCG [7]: equal to or greater than EGCG | Fe^2+ chelation activity compared with EGCG [8]: equal to or greater than EGCG

Stability over 3 h (percent of initial concentration) [9]: 91.8 ± 6.4% | net accumulation at 3 h (amount per mg protein) ([11]; 37°C, pH 5 PBS, media from EGCG + EGC (media 3, 6)): 1.89 ± 0.15 nmol/mg | Three h accumulation (range over monomer media) ([11]; 3 h, range over the media that contain the monomer): 1.24–1.35%
Compound: O=C(O[C@@H]1Cc2c(O)cc(O)cc2O[C@@H]1c1cc(O)c(O)c(O)c1)c1cc(O)c(O)c(O)c1 [EGCG, (−)-epigallocatechin gallate]
3 h accumulation (Caco-2 cells [5]; previously reported by the authors): 0.2–2.5 nmol/mg protein
